Laboratory results taken from ChEMBL document CHEMBL3352773, “Synthesis and evaluation of the 2,4-diaminoquinazoline series as anti-tubercular agents” (Bioorg Med Chem, 2014).
Values after ≈ are worked out from the molar mass of the structure shown. Active and inactive are the calls of the source. The rule behind the calls is not given here.

Legend:
[1] = test system: Mycobacterium tuberculosis; test: Antituberculosis activity against Mycobacterium tuberculosis H37Rv assessed as complete growth inhibition after 5 days; assay type: functional; settings: 120 h
[2] = test system: Mycobacterium tuberculosis; test: Antituberculosis activity against Mycobacterium tuberculosis H37Rv assessed as complete growth inhibition at 20 uM after 5 days; assay type: functional; settings: 120 h
[3] = test system: Mycobacterium tuberculosis; test: Antituberculosis activity against Mycobacterium tuberculosis H37Rv assessed as complete growth inhibition after 5 days using solid media by serial proportion method; assay type: functional; settings: 120 h
[4] = test system: Mycobacterium tuberculosis; test: Antituberculosis activity against Mycobacterium tuberculosis H37Rv assessed as complete growth inhibition after 5 days using liquid media; assay type: functional; settings: 120 h
[5] = test system: Mycobacterium tuberculosis; test: Antituberculosis activity against Mycobacterium tuberculosis H37Rv grown in liquid media using palmitate as carbon source assessed as growth inhibition; assay type: functional
[6] = test system: Mycobacterium tuberculosis; test: Bactericidal activity against Mycobacterium tuberculosis H37Rv under non-replicating condition assessed as reduction in viability at 124 uM measured over 7 days by time kill kinetic study relative to control; assay type: functional
[7] = test system: Mycobacterium tuberculosis; test: Bactericidal activity against Mycobacterium tuberculosis H37Rv under aerobic and replicating condition assessed as reduction in viability at 124 uM measured over 7 days by time kill kinetic study relative to control; assay type: functional
[8] = test system: Mycobacterium tuberculosis; test: Antituberculosis activity against Mycobacterium tuberculosis H37Rv assessed as complete growth inhibition at 56 uM in absence of hemin; assay type: functional, organism-based
[9] = test system: Mycobacterium tuberculosis; test: Antituberculosis activity against Mycobacterium tuberculosis H37Rv assessed as complete growth inhibition at 56 uM in presence of hemin; assay type: functional, organism-based
[10] = test system: Mycobacterium tuberculosis; test: Antituberculosis activity against Mycobacterium tuberculosis H37Rv grown in liquid media using glucose as carbon source assessed as growth inhibition; assay type: functional
[11] = test system: Mycobacterium tuberculosis; test: Antituberculosis activity against Mycobacterium tuberculosis H37Rv grown in solid media assessed as growth inhibition by serial proportion method; assay type: functional
[12] = Oral bioavailability in Sprague-Dawley rat at 10 mg/kg after 24 hrs; assay type: ADME, organism-based; settings: in vivo
Rattus norvegicus [13] = test: Volume of distribution at steady state in Sprague-Dawley rat at 10 mg/kg, po after 24 hrs; assay type: ADME, organism-based; set-up: dose 10 mg/kg, route oral; settings: in vivo
Rattus norvegicus [14] = test: AUC in Sprague-Dawley rat at 10 mg/kg, po after 24 hrs; assay type: ADME, organism-based, Plasma; set-up: time < 24 hr, dose 10 mg/kg, route oral; settings: in vivo

Row | SMILES | MIC99 [1] [µM] | inhibition at 20 µM [2] [%] | further results
1 | Fc1ccc(CNc2nc(N3CCCCC3)nc3sccc23)cc1 | 73 (≈ 25 µg/mL) |  | 
2 | OCC1CCN(c2nc(NCc3ccc(F)cc3)c3ccccc3n2)CC1 |  | < 30 | 
3 | Fc1ccc(CNc2nc(N3CCCCC3)nc3ccccc23)cc1 | 7.4 (≈ 2.49 µg/mL) | 97 | 
4 | Cc1cnc(N2CCCCC2)nc1NCc1ccc(F)cc1 | 83 (≈ 24.9 µg/mL) | < 30 | 
5 | OCC(Nc1cc(N2CCCCC2)nc2ccccc12)c1ccc(F)cc1 (stereo not given) |  | 55 | 
6 | Cc1nc(N2CCCCC2)nc(NCc2ccc(F)cc2)c1C |  | < 30 | 
7 | O=C(O)C(Nc1cc(N2CCCCC2)nc2ccccc12)c1ccc(F)cc1 (stereo not given) |  | < 30 | 
8 | CO[C@H]1/C=C/O[C@@]2(C)Oc3c(C)c(O)c4c(O)c(c(/C=N/N5CCN(C)CC5)c(O)c4c3C2=O)NC(=O)/C(C)=C\C=C\[C@H](C)[C@H](O)[C@@H](C)[C@@H](O)[C@@H](C)[C@H](OC(C)=O)[C@@H]1C [RIFAMPIN] |  | 100 | MIC99 [3]: 0.013 µM (≈ 0.0107 µg/mL); MIC99 [4]: 0.004 µM (≈ 0.00329 µg/mL)
9 | Nc1nc(NCc2ccc(F)cc2)c2ccccc2n1 | 93 (≈ 25 µg/mL) | < 30 | 
10 | Fc1ccc(CNc2cc(N3CCCCC3)nc3ccccc23)cc1 |  | 98 | 
11 | COc1cc2nc(N3CCCCC3)nc(NCc3ccc(F)cc3)c2cc1OC | 25 (≈ 9.91 µg/mL) | 92 | 
12 | FC(F)(F)c1ccc(CCNc2nc(N3CCCCC3)nc3ccccc23)cc1 | 5.7 (≈ 2.28 µg/mL) | 97 | 
13 | Clc1ccc(CNc2nc(N3CCCCC3)nc3ccccc23)cc1 |  | 99 | 
14 | Fc1ccc(CNc2nc(CN3CCCCC3)nc3ccccc23)cc1 | 29 (≈ 10.2 µg/mL) | < 30 | 
15 | Fc1ccc(Nc2nc(N3CCCCC3)nc3ccccc23)cc1 | 39 (≈ 12.6 µg/mL) | < 30 | 
16 | Fc1ccc2c(c1)CCN(c1nc(N3CCCCC3)nc3ccccc13)C2 |  | 94 | 
17 | Fc1ccc(CCc2nc(N3CCCCC3)nc3ccccc23)cc1 |  | < 30 | 
18 | O=C(O)CC1CCCCN1c1nc(NCc2ccc(F)cc2)c2ccccc2n1 (stereo not given) |  | < 30 | 
19 | CN(C)c1nc(NCc2ccc(F)cc2)c2ccccc2n1 | 34 (≈ 10.1 µg/mL) | 40 | 
20 | CNc1nc(NCc2ccc(F)cc2)c2ccccc2n1 | 35 (≈ 9.88 µg/mL) | 44 | 
21 | Fc1ccc(CNc2nc(N3CCCCC3)nc3[nH]ccc23)cc1 |  | < 30 | 
22 | Fc1ccc(CNc2nc(C3CCCCC3)nc3ccccc23)cc1 | 15 (≈ 5.03 µg/mL) | 47 | 

Row | SMILES | MIC99 [1] [µM] | inhibition at 20 µM [2] [%] | further results
23 | COc1cccc2c(NCc3ccc(F)cc3)nc(N3CCCCC3)nc12 |  | 83 | 
24 | COc1ccc2c(NCc3ccc(F)cc3)nc(N3CCCCC3)nc2c1 |  | 74 | 
25 | Ic1cccc(CNc2nc(N3CCCCC3)nc3ccccc23)c1 |  | 98 | 
26 | OC1CCN(c2nc(NCc3ccc(F)cc3)c3ccccc3n2)CC1 |  | < 30 | 
27 | CC1CCN(c2nc(NCc3ccc(F)cc3)c3ccccc3n2)CC1 |  | 97 | 
28 | Cc1ccc(CNc2nc(N3CCCCC3)nc3ccccc23)cc1 |  | 98 | 
29 | c1ccc2c(NCC3CCCCC3)nc(N3CCCCC3)nc2c1 |  | 99 | 
30 | Fc1ccc(CNc2nc(N3CCCCC3)nc3ccccc23)c(F)c1 |  | 97 | 
31 | Fc1ccc(CNc2nc(N3CCCCC3)nc3cccnc23)cc1 | 37 (≈ 12.5 µg/mL) | < 30 | 
32 | FC(F)(F)Oc1ccc(CNc2nc(N3CCCCC3)nc3ccccc23)cc1 |  | 95 | 
33 | CC(C)CNc1nc(N2CCCCC2)nc2ccccc12 | 25 (≈ 7.11 µg/mL) | 37 | 
34 | Cc1cccc2nc(N3CCCCC3)nc(NCc3ccc(F)cc3)c12 |  | 98 | 
35 | FC(F)(F)c1ccc(CNc2nc(N3CCCCC3)nc3ccccc23)cc1 | 6.6 (≈ 2.55 µg/mL) | 99 | MIC99 [5]: 28 µM (≈ 10.8 µg/mL); fold change (FC) [6]: 3; fold change (FC) [7]: 4; Activity [8]: Active; Activity [9]: Active; MIC99 [10]: 28 µM (≈ 10.8 µg/mL); MIC99 [11]: 16 µM (≈ 6.18 µg/mL)
36 | OCCN(CCO)c1nc(NCc2ccc(F)cc2)c2ccccc2n1 |  | < 30 | 
37 | Cc1ccc2nc(N3CCCCC3)nc(NCc3ccc(F)cc3)c2c1 |  | 99 | 
38 | Fc1ccc(CNc2cc(Cc3ccccc3)nc(N3CCCCC3)n2)cc1 | 27 (≈ 10.2 µg/mL) | 84 | 
39 | Fc1cccc(CNc2nc(N3CCCCC3)nc3ccccc23)c1 |  | 98 | 
40 | c1ccc2c(CNc3nc(N4CCCCC4)nc4ccccc34)cccc2c1 |  | 97 | 
41 | Fc1ccc(CNc2cc(N3CCCCC3)nc3ncnn23)cc1 |  | < 30 | 
42 | Fc1ccc(CNc2nc(N3CCCCC3)nc3ccsc23)cc1 | 292 (≈ 100 µg/mL) | < 30 | 
43 | Nc1ccc(N2CCN(c3nc(NCc4ccc(F)cc4)c4ccccc4n3)CC2)cc1 |  | 94 | 
44 | Fc1ccc(Cn2cnc3c(N4CCCCC4)nc4ccccc4c32)cc1 |  | 98 | bioavailability [12]: 3.4%; MIC99 [3]: 27.7 µM (≈ 9.98 µg/mL); MIC99 [4]: 13.8 µM (≈ 4.97 µg/mL); Vdss (Rattus norvegicus [13]): 14.2 L/kg; AUC (Rattus norvegicus [14]): 27.4 ng·h/mL

Row | SMILES | MIC99 [1] [µM] | inhibition at 20 µM [2] [%] | further results
45 | Fc1ccc(CNc2nc(N3CCCCC3)nc3ccccc23)cc1F |  | 96 | 
46 | COc1ccc2nc(N3CCCCC3)nc(NCc3ccc(F)cc3)c2c1 |  | 97 | 
47 | COc1ccc(CNc2nc(N3CCCCC3)nc3ccccc23)cc1 |  | 97 | 
48 | Nc1ccc(CNc2nc(N3CCCCC3)nc3ccccc23)cc1 |  | < 30 | 
49 | Fc1ccc(CNc2nc(N3Cc4ccccc4C3)nc3ccccc23)cc1 |  | 78 | 
50 | Clc1ccc(CNc2nc(N3CCCCC3)nc3ccccc23)c(Cl)c1 |  | 98 | 
51 | c1ccc2nc(N3CCCCC3)ncc2c1 | 469 (≈ 100 µg/mL) | < 30 | 
52 | Fc1ccc(CNc2ncnc3ccccc23)cc1 | 99 (≈ 25.1 µg/mL) | < 30 | 
53 | Fc1ccc(CNc2nc(N3CCCCC3)nc3[nH]cnc23)cc1 |  | < 30 | 
54 | Fc1ccc(CNc2nc(N3CCCCC3)nc3cccc(F)c23)cc1 |  | < 30 | 
55 | Clc1ccc(CNc2nc(N3CCCCC3)nc3ccccc23)cc1Cl |  | 98 | 
56 | Cn1cnc2c(NCc3ccc(F)cc3)nc(N3CCCCC3)nc21 |  | < 30 | 
57 | Fc1ccc(CNc2nc(N3CCCCC3)nc3cc(Cl)ccc23)cc1 |  | 51 | 
58 | O=C(O)C1CCN(c2nc(NCc3ccc(F)cc3)c3ccccc3n2)CC1 |  | < 30 | 
59 | O=C(O)CNC1CCN(c2nc(NCc3ccc(F)cc3)c3ccccc3n2)CC1 |  | < 30 | 
60 | Cc1nc(NCc2ccc(F)cc2)c2ccccc2n1 | 94 (≈ 25.1 µg/mL) | < 30 | 
61 | Fc1ccc(CNc2nc(N3CCCC3)nc3ccccc23)cc1 | 31 (≈ 9.99 µg/mL) | 97 | 
62 | c1ccc(CNc2nc(N3CCCCC3)nc3ccccc23)cc1 | 9.2 (≈ 2.93 µg/mL) | 96 | 
63 | Cn1ccc2c(NCc3ccc(F)cc3)nc(N3CCCCC3)nc21 |  | < 30 | 
64 | CC1CC(C)CN(c2nc(NCc3ccc(F)cc3)c3ccccc3n2)C1 (stereo not given) |  | < 30 | 
65 | Fc1ccc(CNc2nc(N3CCCCC3)nc3cccc(Cl)c23)cc1 |  | < 30 | 
66 | Fc1ccc(CNc2nc(C(F)(F)F)nc3ccccc23)cc1 |  | < 30 | 

Row | SMILES | MIC99 [1] [µM] | inhibition at 20 µM [2] [%] | further results
67 | Cc1cc(NCc2ccc(F)cc2)nc(N2CCCCC2)n1 | 83 (≈ 24.9 µg/mL) | < 30 | 
68 | Fc1ccc(CNc2nc(N3CCCCC3)nc3c(Cl)cccc23)cc1 |  | < 30 | 
69 | Fc1ccc(CNc2nc(N3CCCCC3)nc3ncccc23)cc1 | 74 (≈ 25 µg/mL) | 37 | 
70 | Fc1ccc(COc2nc(N3CCCCC3)nc3ccccc23)cc1 | 296 (≈ 99.9 µg/mL) | < 30 | 
71 | CN(C)C1CCN(c2nc(NCc3ccc(F)cc3)c3ccccc3n2)CC1 |  | < 30 | 
72 | Fc1ccccc1CNc1nc(N2CCCCC2)nc2ccccc12 |  | 97 | 
73 | Cc1cccc(CNc2nc(N3CCCCC3)nc3ccccc23)c1 |  | 99 | 
74 | Fc1ccc(CSc2nc(N3CCCCC3)nc3ccccc23)cc1 | 282 (≈ 99.7 µg/mL) | < 30 | 
75 | Clc1ccc(Cl)c(CNc2nc(N3CCCCC3)nc3ccccc23)c1 |  | 97 | 
76 | CNC1CCN(c2nc(NCc3ccc(F)cc3)c3ccccc3n2)CC1 |  | 33 | 
77 | Fc1ccc(CNc2nc(N3CCNCC3)nc3ccccc23)cc1 | 148 (≈ 49.9 µg/mL) | < 30 | 
78 | NC1CCN(c2nc(NCc3ccc(F)cc3)c3ccccc3n2)CC1 |  | < 30 | 
79 | CNc1nc(N2CCCCC2)nc2ccccc12 | 206 (≈ 49.9 µg/mL) | < 30 | 
80 | Fc1ccc(CNc2nc(N3CCCCC3)nc3cnccc23)cc1 | 30 (≈ 10.1 µg/mL) | 59 | 
81 | O=[N+]([O-])c1cccc2c(NCc3ccc(F)cc3)nc(N3CCCCC3)nc12 |  | < 30 | 
82 | Fc1ccc(CNc2nc(-c3ccccc3)nc3ccccc23)cc1 | 76 (≈ 25 µg/mL) | < 30 | 
83 | Fc1ccc(CNc2cc(N3CCCCC3)nc3ccnn23)cc1 |  | < 30 | 
84 | COc1ccc(CNc2nc(N3CCCCC3)nc3ccccc23)cc1Cl |  | 98 | 
85 | c1ccc2c(N3CCCCC3)nc(N3CCCCC3)nc2c1 |  | < 30 | 
86 | Fc1ccc(CNc2nc(N3CCCCC3)ncc2Cc2ccccc2)cc1 | 26 (≈ 9.79 µg/mL) | 68 | 
87 | Fc1ccc(CNc2nc(N3CCCCC3)nc3ccc(Cl)cc23)cc1 |  | 49 | 
